From patent US10023592B2, “Bromodomain inhibitors” (Celgene Quanticel Research, Inc., priority 2013, dated 2018) come the findings set out here.

Assay [1] relates to NCI-H460, human non-small cell lung cancer cells. The assay is described as follows: Cell-MTS proliferation assay, NCI-H460. The format is cell-based. The conditions noted are these: Homo sapiens, 168 hr. The protocol:
(§1) The Cell-MTS assay is a 7-day plate-based colorimetric assay which quantifies the amount of newly generated NADH in the presence or absence of test compound. The NADH level is used for the quantification of cancer cell proliferation.
(§2) Established cancer cell lines with a variety of driving mutations were obtained from American Type Culture Collection (ATCC) and routinely passaged according to ATCC protocols. For routine assay, these cells were seeded at densities which enabled ˜90% confluence after 7 days of culture. Raji, human Burkitts lymphoma cells, (cMYC) were seeded at 15,000 cells per 96-well. HL-60, human proleukemia cells, (NRAS, p16, p53, c-Myc amplified) were seeded at 5,000 cells per 96-well. NCI-H460, human non-small cell lung cancer cells, (KRAS, PIK3CA, STLK11, p16) were seeded at 3,000 cells per 96-well. 24 hr after plating, cells received an 11-point dilution of test compound with final concentration ranges from 100 μM to 2.0 nM. […] At the end of this incubation period, 80 μL of media is removed and 20 μL of CellTiter 96® AQueous Non-Radioactive Cell Proliferation Assay soln (Promega) was added. The cells were incubated until the OD490 was >0.6. IC50 values were calculated using the IDBS XLfit software package and include background subtracted OD490 values and normalization to DMSO controls. Cellular proliferation IC50 values were uploaded and archived using the Chem Biography Platform.
Background: Tetrazolium assays rely on reduction of a dye to a coloured formazan, in cell work by metabolically active cells.

Assay [2] has as its system HL-60, human proleukemia cells. The assay is described as follows: Cell-MTS proliferation assay, HL-60. The conditions noted are these: Homo sapiens, 168 hr. The format is cell-based. The method, then:
as §1, §2

The target of another assay is BRD4(BD1) (Homo sapiens (Human), UniProt O60885). Put plainly: In vitro enzyme inhibition assay (BRD4 AlphaScreen). The format is binding. Put shortly: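 AlphaScreen proximity readout, using streptavidin donor and Ni-chelate acceptor beads at 5 μg/mL final, monitors biotin-H4 tetraacetylated peptide interaction with purified His-tagged BRD4.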
A general note: Bead proximity is the source of the signal in Alpha formats.

Assay [3] deals with Raji, human Burkitts lymphoma cells. Put plainly: Cell-MTS proliferation assay, Raji. The format is cell-based. To be noted: Homo sapiens, 168 hr. The method, then: as §1, §2
Setting [4] is: Cell-MTS proliferation, NCI-H460 cells.
[5] abbreviates: Cell-MTS proliferation, HL-60 cells.
[6] abbreviates: in vitro enzyme inhibition assay.
The mark [7] stands for this setting: Cell-MTS proliferation, Raji cells.
[8] abbreviates: NCI-H460, Cell-MTS, class symbols A/B/C.
Setting [9] is: HL-60, Cell-MTS, class symbols A/B/C.
[10] abbreviates: Raji, Cell-MTS, class symbols A/B/C.
Setting [11] is: NCI-H460, Cell-MTS proliferation.

Usually IC50 stands for the point on the concentration scale where inhibition reaches its midpoint. A lower IC50 goes with inhibition by little substance. `CN(C)c1cc(-c2cc(S(C)(=O)=O)ccc2NCC2CC2)cn(C)c1=O` [Example 438, 5-[2-(cyclopropylmethylamino)-5-methylsulfonylphenyl]-3-(dimethylamino)-1-methylpyridin-2-one]: the IC50 in assay [1] (setting [4]) was above 5000 nM; in assay [2] (setting [5]), below 500 nM; against BRD4(BD1) (setting [6]) it was below 500 nM; in assay [3] (setting [7]), below 500 nM.
As for `CCS(=O)(=O)c1ccc(NCC2CC2)c(-c2cc(C)c(=O)n(C)c2)c1` [Example 465, 5-[2-(cyclopropylmethylamino)-5-ethylsulfonylphenyl]-1,3-dimethylpyridin-2-one], the IC50 in assay [1] (setting [4]) was above 5000 nM; in assay [2] (setting [5]), below 500 nM; on BRD4(BD1) (setting [6]), below 500 nM; in assay [3] (setting [7]) it was below 500 nM.
As to `CCS(=O)(=O)Nc1ccc(Oc2ccc(F)cc2F)c(-c2cc(Cl)c(=O)n(C)c2)c1` [Example 134, N-[3-(5-chloro-1-methyl-6-oxopyridin-3-yl)-4-(2,4-difluorophenoxy)phenyl]ethanesulfonamide], the half-inhibitory concentration (IC50) was 500 to 5000 nM in assay [1] (setting [8]), below 500 nM in assay [2] (setting [9]), below 500 nM against BRD4(BD1) (class symbols A/B/C) and below 500 nM in assay [3] (setting [10]).
Take `Cn1cc(-c2cc(S(C)(=O)=O)ncc2OCC2CC2)c2ccccc2c1=O` [Example 200, 4-[5-(cyclopropylmethoxy)-2-methylsulfonylpyridin-4-yl]-2-methylisoquinolin-1-one]: the IC50 was above 5000 nM in assay [1] (setting [11]); below 500 nM in assay [2] (HL-60, Cell-MTS proliferation); below 500 nM against BRD4(BD1) (setting [6]); 500 to 5000 nM in assay [3] (Raji, Cell-MTS proliferation).
With `Cn1cc(-c2cc(S(C)(=O)=O)ccc2OC2CCOCC2)c2ccccc2c1=O` [Example 176, 2-methyl-4-[5-methylsulfonyl-2-(oxan-4-yloxy)phenyl]isoquinolin-1-one], the 50% inhibitory concentration (IC50) in assay [1] (setting [11]) was above 5000 nM; in assay [2] (HL-60, Cell-MTS proliferation), below 500 nM; on BRD4(BD1) (setting [6]) it was below 500 nM; in assay [3] (Raji, Cell-MTS proliferation), below 500 nM.
Consider `CCS(=O)(=O)c1ccc(OCC2CC2)c(-c2cc(OC)c(=O)n(C)c2)c1` [Example 399, 5-[2-(cyclopropylmethoxy)-5-ethylsulfonylphenyl]-3-methoxy-1-methylpyridin-2-one], for which the half-inhibitory concentration (IC50) is above 5000 nM in assay [1] (setting [4]), below 500 nM in assay [2] (setting [5]), below 500 nM at BRD4(BD1) (setting [6]) and below 500 nM in assay [3] (setting [7]).
In the case of `CCN(c1ncc(OCC2CC2)c(-c2cn(C)c(=O)c3ccccc23)n1)S(C)(=O)=O` [Example 161, N-[5-(cyclopropylmethoxy)-4-(2-methyl-1-oxoisoquinolin-4-yl)pyrimidin-2-yl]-N-ethylmethanesulfonamide], the IC50 in assay [1] (setting [11]) was above 5000 nM; in assay [2] (HL-60, Cell-MTS proliferation) it was below 500 nM; against BRD4(BD1) (setting [6]) it was below 500 nM; in assay [3] (Raji, Cell-MTS proliferation), below 500 nM.
As to `Cn1cc(-c2cc(S(C)(=O)=O)ccc2OCC2CC2)c2cc(Cl)oc2c1=O` [Example 260, 2-chloro-4-[2-(cyclopropylmethoxy)-5-methylsulfonylphenyl]-6-methylfuro[2,3-c]pyridin-7-one], the IC50 in assay [1] (setting [11]) is 500 to 5000 nM; in assay [2] (HL-60, Cell-MTS proliferation), below 500 nM; at BRD4(BD1) (setting [6]), below 500 nM; in assay [3] (Raji, Cell-MTS proliferation) it was below 500 nM.
Turning to `Cc1cc(-c2cc(S(C)(=O)=O)ccc2Nc2ccc(F)cc2F)cn(C)c1=O` [Example 398, 5-[2-(2,4-difluoroanilino)-5-methylsulfonylphenyl]-1,3-dimethylpyridin-2-one], the IC50 in assay [1] (setting [4]) was above 5000 nM; in assay [2] (setting [5]), below 500 nM; on BRD4(BD1) (setting [6]) it was below 500 nM; in assay [3] (setting [7]) it was 500 to 5000 nM.
Turning to `CCS(=O)(=O)Nc1ccc(Oc2ccc(F)cc2F)c(-c2cc(SC)c(=O)n(C)c2)c1` [Example 402, N-[4-(2,4-difluorophenoxy)-3-(1-methyl-5-methylsulfanyl-6-oxopyridin-3-yl)phenyl]ethanesulfonamide], the IC50 is above 5000 nM in assay [1] (setting [4]), below 500 nM in assay [2] (setting [5]), below 500 nM against BRD4(BD1) (setting [6]) and below 500 nM in assay [3] (setting [7]).
Consider `CCS(=O)(=O)Nc1ncc(Oc2ccc(F)cc2F)c(-c2cn(C)c(=O)c3c2CCCC3)n1` [Example 173, N-[5-(2,4-difluorophenoxy)-4-(2-methyl-1-oxo-5,6,7,8-tetrahydroisoquinolin-4-yl)pyrimidin-2-yl]ethanesulfonamide], for which the IC50 is above 5000 nM in assay [1] (setting [11]); 500 to 5000 nM in assay [2] (HL-60, Cell-MTS proliferation); below 500 nM against BRD4(BD1) (setting [6]); 500 to 5000 nM in assay [3] (Raji, Cell-MTS proliferation).
Consider `CCS(=O)(=O)Nc1ccc(Oc2ccc(F)cc2F)c(-c2cc(OC)c(=O)n(C)c2)c1` [Example 443, N-[4-(2,4-difluorophenoxy)-3-(5-methoxy-1-methyl-6-oxopyridin-3-yl)phenyl]ethanesulfonamide], for which the half-inhibitory concentration (IC50) in assay [1] (setting [4]) was above 5000 nM; in assay [2] (setting [5]), below 500 nM; at BRD4(BD1) (setting [6]) it was below 500 nM; in assay [3] (setting [7]), below 500 nM.
Regarding `Cn1cc(-c2cc(S(C)(=O)=O)ccc2OCC2CC2)c2occc2c1=O` [Example 377, 7-[2-(cyclopropylmethoxy)-5-methylsulfonylphenyl]-5-methylfuro[3,2-c]pyridin-4-one], the IC50 is above 5000 nM in assay [1] (setting [4]), below 500 nM in assay [2] (setting [5]), below 500 nM against BRD4(BD1) (setting [6]) and below 500 nM in assay [3] (setting [7]).
In the case of `CCS(=O)(=O)Nc1ccc(Oc2ccc(F)cc2F)c(-c2ccc(=O)n(C)c2)c1` [Example 99, N-[4-(2,4-difluorophenoxy)-3-(1-methyl-6-oxopyridin-3-yl)phenyl]ethanesulfonamide], the IC50 is above 5000 nM in assay [1] (setting [8]), below 500 nM in assay [2] (setting [9]), below 500 nM on BRD4(BD1) (class symbols A/B/C) and below 500 nM in assay [3] (setting [10]).
`CCn1cc(-c2cc(S(C)(=O)=O)ccc2NCC2CC2)cc(C)c1=O` [Example 428, 5-[2-(cyclopropylmethylamino)-5-methylsulfonylphenyl]-1-ethyl-3-methylpyridin-2-one]: the IC50 is above 5000 nM in assay [1] (setting [4]), 500 to 5000 nM in assay [2] (setting [5]), below 500 nM against BRD4(BD1) (setting [6]) and 500 to 5000 nM in assay [3] (setting [7]).
`CCS(=O)(=O)Nc1ncc(Oc2ccc(F)cc2F)c(-c2cc(C)c(=O)n(CC3CC3)c2)n1` [Example 249, N-[4-[1-(cyclopropylmethyl)-5-methyl-6-oxopyridin-3-yl]-5-(2,4-difluorophenoxy)pyrimidin-2-yl]ethanesulfonamide]: the IC50 is above 5000 nM in assay [1] (setting [11]); below 500 nM in assay [2] (HL-60, Cell-MTS proliferation); below 500 nM at BRD4(BD1) (setting [6]); below 500 nM in assay [3] (Raji, Cell-MTS proliferation).
On to `Cc1cc(-c2cn(CS(C)(=O)=O)c(=O)cc2Oc2ccc(F)cc2F)cn(CC2CC2)c1=O` [Example 250], for which the IC50 is above 5000 nM in assay [1] (setting [11]); below 500 nM in assay [2] (HL-60, Cell-MTS proliferation); 500 to 5000 nM in assay [3] (Raji, Cell-MTS proliferation).
Turning to `CCS(=O)(=O)c1ccc(NCC2CC2)c(-c2cc(Cl)c(=O)n(C)c2)c1` [Example 275], the half-maximal inhibitory concentration (IC50) in assay [1] (setting [11]) is above 5000 nM; in assay [2] (HL-60, Cell-MTS proliferation), below 500 nM; in assay [3] (Raji, Cell-MTS proliferation), below 500 nM.
`Cn1cc(-c2cc(OS(N)(=O)=O)ccc2OCC2CC2)c2ccccc2c1=O` [Example 214, [4-(cyclopropylmethoxy)-3-(2-methyl-1-oxoisoquinolin-4-yl)phenyl]sulfamate]: the IC50 in assay [1] (setting [11]) is above 5000 nM; in assay [2] (HL-60, Cell-MTS proliferation), below 500 nM; in assay [3] (Raji, Cell-MTS proliferation) it was below 500 nM.
With `Cc1cc(-c2cc(OS(N)(=O)=O)ccc2OCC2CC2)cn(C)c1=O` [Example 215, [4-(cyclopropylmethoxy)-3-(1,5-dimethyl-6-oxopyridin-3-yl)phenyl]sulfamate], the half-inhibitory concentration (IC50) in assay [1] (setting [11]) is above 5000 nM; in assay [2] (HL-60, Cell-MTS proliferation) it was below 500 nM; in assay [3] (Raji, Cell-MTS proliferation), below 500 nM.
For the compound `CCS(=O)(=O)c1ccc(OCC2CC2)c(-c2cn(C)c(=O)c3c2OCC(=O)N3)c1` [Example 365, 8-[2-(cyclopropylmethoxy)-5-ethylsulfonylphenyl]-6-methyl-4H-pyrido[4,3-b][1,4]oxazine-3,5-dione], the IC50 in assay [1] (setting [11]) is above 5000 nM; in assay [2] (HL-60, Cell-MTS proliferation), below 500 nM; in assay [3] (Raji, Cell-MTS proliferation) it was below 500 nM.
On to `Cc1c(-c2cc(NS(C)(=O)=O)ccc2Oc2ccc(F)cc2F)cn(C)c(=O)c1C` [Example 103, N-[4-(2,4-difluorophenoxy)-3-(1,4,5-trimethyl-6-oxopyridin-3-yl)phenyl]methanesulfonamide], for which the IC50 was above 5000 nM in assay [1] (setting [8]), below 500 nM in assay [2] (setting [9]) and 500 to 5000 nM in assay [3] (setting [10]).
Turning to `CCCOc1ccc(S(C)(=O)=O)cc1-c1cn(C)c(=O)c2cnc(-c3cnn(C)c3)nc12` [Example 228], the IC50 in assay [1] (setting [11]) was above 5000 nM; in assay [2] (HL-60, Cell-MTS proliferation), below 500 nM; in assay [3] (Raji, Cell-MTS proliferation), 500 to 5000 nM.
